# Publication PMC2943414 (Journal of the American Chemical Society, 2010)
# Biological target: flavodoxin (Nitratidesulfovibrio vulgaris, UniProt P00323, W140F)
# Test: FMN retained on purification
# Format: binding
# Details: oxidized state; as purified, before FMN removal
# Sequence of flavodoxin (P00323 whole entry W140F): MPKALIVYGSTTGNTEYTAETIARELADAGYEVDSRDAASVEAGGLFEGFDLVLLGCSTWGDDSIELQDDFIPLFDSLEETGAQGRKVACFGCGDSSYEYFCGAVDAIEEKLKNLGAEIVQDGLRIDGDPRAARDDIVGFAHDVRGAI
smiles,measurement,value
Cc1cc2nc3c(=O)[nH]c(=O)nc-3n(C[C@H](O)[C@H](O)[C@H](O)COP(=O)(O)O)c2cc1C [FMN],FMN retained on purification,the two flavodoxin mutants (W60FY98F and W140F) contained the oxidized FMN
